{
  "source": "patent US10456441B2",
  "about": "“Augmenting the immune response by promoting cell death of immune cells” (The University of Vermont and State Agricultural College, priority 2014, dated 2019)",
  "key": {"[1]": {"details": "animal models; cited from earlier work"}, "[2]": {"system": "γδ T cells", "assay": "Cell death of γδ T cells by TUNEL assay", "format": "cell-based, mice", "details": "50 μM zVAD", "procedure": "Spleens were isolated and disrupted through nylon mesh in RPMI 1640 with 25 mm Hepes (MediaTech, Herndon, Va.) containing 5% (v/v) bovine calf serum (HyClone, Logan, Utah). Erythrocyte lysis of splenocytes was performed using Geys solution. γδ T lymphocytes were enriched by negative selection using a magnetic bead system (Qiagen, Valencia, Calif.) in which splenocytes were incubated with a cocktail of rat monoclonal antibodies to mouse CD4 (clone GK 1.5), CD8 (clone Tib105), class II (clone M5/114/15/2), CD11b (clone M1/70), and B220 (CD45R) (clone RA3-6B2). Cells were washed three times and then rocked with goat anti-rat conjugated magnetic beads at a 10:1 ratio of beads to cell at 4° C. for 45 min. Magnetic depletion was used to remove bead-bound cells. Finally, enriched γδ T cells were resuspended in complete medium (RPMI 1640 (Mediatech, Inc., Herndon, Va., USA), 2.5 mg/ml glucose (Sigma, St. Louis, Mo.), […] folate (Invitrogen, Carlsbad, Calif.), 110 μg/ml pyruvate (Invitrogen), 5×10^−5 M 2-mercaptoethanol (Sigma), 292.3 μg/ml glutamine (Invitrogen), 100 units/ml penicillin-streptomycin (Invitrogen), and 5% bovine calf serum). […] Cells were counted daily and supplied with fresh media containing 50 units/ml IL-2. […]"}, "[3]": {"system": "γδ T cells", "assay": "Mixed cultures of γδ T cells and BMDC: γδ T cell activation (IL-17, IFN-γ, CD25)", "format": "cell-based, mice", "procedure": "Cells were washed three times and then rocked with goat anti-rat conjugated magnetic beads at a 10:1 ratio of beads to cell at 4° C. for 45 min. Magnetic depletion was used to remove bead-bound cells. […] After 2 days, cells were removed from anti-TCR-γδ stimulation, supplied with fresh medium plus IL-2, and returned to culture at a density of 0.3×10^6 cells/ml. Cells were counted daily and supplied with fresh media containing 50 units/ml IL-2. […] In addition, in some experiments freshly isolated splenic γδ T cells were prepared using anti-γδ-coated magnetic beads (Miltenyi Biotec) and magnet purification.\nThe preparation of bone marrow-derived dendritic cells (BMDC) was done according to the method of Lutz et al. (26) using GM-CSF ([…] PeproTech, Rocky Hill N.J.) or GM-CSF plus IL-4 (10 μg/ml, PeproTech). Cells were used on day 7.\nDay 7 γδ T cells and BMDC were cultured either individually or together at a 1:1 ratio (10^6 cells/ml each). To some cultures the following reagents were added: a sonicate of Borrelia burgdorferi (10 μg/ml), zVAD-fmk (MP Biomedical, Santa Ana Calif.) at the doses indicated, necrostatin (50 μM, R&D Systems, Minneapolis, Minn.), anti-TNF-α (10 μg/ml, Calbiochem, Darnstadt, Germany),, anti-IL-1 Receptor antagonist, Anakinra (200 ng/ml, Amgen, Thousand Oaks, Calif.), anti-IL-12 (10 μg/ml, BioLegend San Diego, Calif.), anti-IL-18 (10 μg/ml, MBL, Woburn Mass.), or rat IgG (10 μg/ml Jackson Immunoresearch, West Grove Pa.). Transwell assays were performed using 1×10^6 γδ T cells in 1 ml of complete medium+IL-2 placed in the lower chamber, with 5×10^5 DC in 100 μl placed in the upper chamber. […]\nCytokine levels of IFN-γ, IL-1β, IL-12p40, IL-12p70, IL-17, and TNF-α were detected using the Bio-Plex, MilliPlex, or Luminex immunoassay (Bio-Rad; Millipore-EMD; R&D Systems, Minneapolis, Minn.) according to the manufacturer's protocol. Briefly, samples were run undiluted or diluted 1:10 in RPMI complete media. 50 μl of the magnetic bead working solution was added to each well, then 50 μl of appropriate samples or standards were then added to wells and incubated at room temperature for 30-120 min at 800 rpm on an IKA MS 3 digital shaker. After three washes with 100 μl Bio-Plex wash buffer, incubation with 25 μl of detection antibody solution was done at room temperature for 30-60 min on the shaker. Following another set of three washes, 50 μl of streptavidin-phycoerythrin (PE) in assay buffer was added to each well and incubated as described for the previous step. After an additional three washes, 125 μl of assay buffer was added. Sample data was analyzed with Bio-Plex Manager software.\nThe following monoclonal antibodies to murine cell surface molecules were purchased from BioLegend: PE-conjugated anti-CD25, APC-conjugated anti-TCR-γδ, and TNF-α neutralizing antibody. Rat IgG was purchased from Jackson Immunoresearch (West Grove, Pa.). For direct staining, single cell suspensions (1×10^6 total cells per staining condition) were washed with cold (4° C.) PBS containing 1% (w/v) BSA fraction V (Sigma) (PBS/1% BSA), incubated with unconjugated rat IgG (50 μg/ml) for 15 min at 4° C., washed again, and then incubated with the appropriate antibodies in PBS/1% BSA. After washing, the cells were fixed with freshly made 1% (v/v) methanol-free formaldehyde (Ted Pella Inc., Redding, Calif.) in PBS/1% BSA."}, "[4]": {"details": "cultured γδ T cells + zVAD-treated BMDC, presence of B. burgdorferi, zVAD 50 μM, 20 h"}, "[5]": {"details": "freshly isolated splenic γδ T cells + zVAD-treated DC + Borrelia"}, "[6]": {"details": "freshly isolated splenic γδ T cells + zVAD-treated DC, absence of Borrelia"}, "[7]": {"details": "zVAD-treated BMDC, absence of Borrelia"}},
  "note": "Where a SMILES comes first, the peptide text is derived from it. The star is where a group is joined. Cbz = O=C(OCc1ccccc1)*; CH2F = FC*",
  "data": [
    {"smiles": "CC(C)[C@H](NC(=O)OCc1ccccc1)C(=O)N[C@@H](C)C(=O)N[C@@H](CC(=O)O)C(=O)CF", "note": "[zVAD, N-benzyloxycarbonyl-Val-Ala-Asp-fluoromethyl ketone] (Cbz-Val-Ala-Asp-CH2F)", "values": [
      {"measurement": "reducing cell death after ischemia in multiple tissues", "setting": "[1]", "value": "highly effective"},
      {"measurement": "cell death of γδ T cells", "setting": "[2]", "value": "no increase in cell death"},
      {"measurement": "expression of surface CD25 on γδ T cells", "setting": "[3]; [4]", "value": "increased expression"},
      {"measurement": "production of IFN-γ by γδ T cells", "setting": "[3]; [4]", "value": "augmented production"},
      {"measurement": "production of IL-17 by γδ T cells", "setting": "[3]; [4]", "value": "augmented production"},
      {"measurement": "production of IFN-γ by fresh γδ T cells", "setting": "[3]; [5]", "value": "greatly augmented production"},
      {"measurement": "production of IL-17 by fresh γδ T cells", "setting": "[3]; [5]", "value": "greatly augmented production"},
      {"measurement": "production of IFN-γ by fresh γδ T cells", "setting": "[3]; [6]", "value": "occurred even in the absence of Borrelia"},
      {"measurement": "production of IL-17 by fresh γδ T cells", "setting": "[3]; [6]", "value": "occurred even in the absence of Borrelia"},
      {"measurement": "activation of γδ T cells in transwell assay", "setting": "[3]; no cell contact, BMDC+Borrelia+zVAD in upper chamber", "value": "partial activation"},
      {"measurement": "activation of γδ T cells by supernatants alone", "setting": "[3]; supernatants from cultures with BMDC+Borrelia+zVAD, no added BMDC or Borrelia", "value": "could augment activation"},
      {"measurement": "production of IFNγ by γδ T cells", "setting": "[3]; [7]", "value": "some production"},
      {"measurement": "production of IL-17 by γδ T cells", "setting": "[3]; [7]", "value": "some production"}
    ]}
  ]
}
